The target of assay [1] is T1, nanobit-large-bit-ERK2 and nanobit-small-bit-PEA15 in WM793 cells (Homo sapiens, UniProt P28482).
T1 construct: expressed in transfected cells
Briefly: NanoBiT assay. Type of assay: cell-based. The following applies: WM793 nanobit stable cell line, overnight incubation; read-out: NanoBiT qualified absolute AC50. On the procedure: (§1) Cancer cell media was prepared by adding 500 mL of RPMI (ThermoFisher cat ##22400-089) and 10% Fetal Bovine Serum (Gibco) for WM793 cells (ATCC Cat #CRL-2806, RRID: CVCL 8787) and F12K (Thermo Fisher cat #21127-022, 500 mL; or 21127-030, 10×500 mL)+10% FBS for PC3 (ATCC CRL-1435) cells. The entire media with supplements was filter sterilized through a 0.4 μm bottle top filter system. Cancer cell lines were detached from traditional cell culture flasks by washing three times with 1×PBS and adding an appropriate amount of 0.25% TrypLE™ Express Enzyme (1×), no phenol red (ThermoFisher cat #12604013) to create a thin layer over the cells. Trypsin was neutralized with media containing serum and proceeded to count the cells.
A nanobit stable cell line was generated using WM793 cells with nanobit-large-bit-ERK2 and nanobit-small-bit-PEA15. […] In a biological safety cabinet, cells were seeded using a sterilized small stainless steel tipped cassette on a Multi-drop Combi. Between different cell lines, the tubing of the cassette was flushed with 1× sterile PBS for 10 s. Alternatively, cells can be seeded using a Multi-flow located within a Hepa filtered robotics room using either a sterilized small sapphire jewel tipped cassette and the peristatic pump, or the attached syringe pump, depending on volume of plates per cell line needed. The plates were placed in an incubator set at 37° C., with 5% CO2 and 95% relative humidity. A 10-point, 3-fold serial dilution of compounds was prepared in 100% DMSO on a liquid handling robot with a 10 mM top concentration. 90 nl/well was dispensed in three assay plates/1 compound source plate, with the highest concentration at 30 μM. After addition of compound was complete, the plates were placed into an incubator at 37° C., with 5% CO2 and 95% relative humidity for overnight. Luminescence was captured on a plate luminometer such as an Envision or View Lux to measure Day 0 time point both select cell lines. LUM plus, gain 3500, 0.1 s and focal height 12.5 [mm] on PheraStar reader. The raw data was extracted from the instrument and normalized all fields containing test compounds to the average of all wells containing DMSO alone as neutral control. From this value, the percent growth inhibition was calculated for each compound. Dose response curves and inhibitory IC50s were generated by graphing the normalized data values against the compound concentration using either a program such as GraphPad™ or Excel Fit.

The next assay relates to WM793 cells. Briefly: Cell proliferation assay (CellTiter-Glo). Type of assay: cell-based. The following applies: 3 d, read-out: Cell proliferation qualified AC50. As to the method: as §1
After counting the cells, the concentration of the cell solution was adjusted to seed a total of 750 cells per well in 50 μL of complete media into 384-well tissue culture treated plates. In a biological safety cabinet, cells were seeded using a sterilized small stainless steel tipped cassette on a Multi-drop Combi. Between different cell lines, the tubing of the cassette was flushed with 1× sterile PBS for 10 seconds. Alternatively, cells can be seeded using a Multi-flow located within a Hepa filtered robotics room using either a sterilized small sapphire jewel tipped cassette and the peristatic pump, or the attached syringe pump, depending on volume of plates per cell line needed. The plates were placed in an incubator set at 37° C., with 5% CO2 and 95% relative humidity. A 10-point, 3-fold serial dilutions of compounds in 100% DMSO was prepared on a liquid handling robot with a 10 mM top concentration. 100 nL/well in three assay plates/1 compound was dispensed to source plate, with the highest concentration at 20 μM. After addition of compound was complete, plates were placed into an incubator at 37° C., with 5% CO2 and 95% relative humidity for 3 d. An adequate volume of CellTiter-Glo® (Promega #G7571) detection reagent was pre-warmed to RT or in a 37° C. H2O bath. 25 μL of the reagent was added to each well using either a Multi-drop Combi or MultiFlo and incubate at RT for at least 15 min. Luminesce was captured on a plate luminometer such as an Envision or View Lux to measure Day 0 time point both select cell lines. LUM plus, gain 3500, 0.1 s and focal height 12.5 mm on PheraStar reader. At Day 3, an adequate volume of CellTiter-Glo® detection reagent was pre-warmed at RT or in a 37° C. H2O bath. A total of 25 μL of the reagent was added to each well using either a Multi-drop Combi or MultiFlo and incubate at RT for at least 15 min. Luminesce was captured on a plate luminometer such as an Envision or View Lux to measure Day 3 time point both select cell lines. LUM plus, gain 3500, 0.1 s and focal height 12.5 mm on PheraStar reader. Raw data was extracted from the instrument and all fields containing test compounds were normalized to the average of all wells containing DMSO alone from Day 3 as neutral control and Day 0 starting numbers. From this value, percent growth inhibition of each compound was calculated. Dose response curves and growth inhibitory IC50s were generated by graphing the normalized data values against the compound concentration using a program such as GraphPad™ or Excel Fit.

Assay [2] has as its target T2, ERK2[2-360(p-T185/p-Y187)]-Avi (Homo sapiens, UniProt P28482).
T2 construct: 400 pM ERK2[2-360(p-T185/p-Y187)]-Avi was added to the plate
The assay can be described thus: Biochemical assay (HTRF competition assay). Type of assay: binding. The settings on record: HTRF competition with Example 15 probe, overnight at RT; read-out: Biochemical qualified AC50. As to the method: The competition assays were performed at RT in a 384-well white polystyrene, flat bottom plate (Greiner #784075) using a final reaction volume of 15 μL and the following assay buffer conditions: 50 mM MOPS, pH 7.2, 10 mM MgCl2, 0.5 mM TCEP, 0.01% Triton-X-100. 75 nL of a 10 mM compound solution in DMSO or 100% DMSO (12 point titration, final concentration: 50 μM-300 pM; final DMSO: 0.5%) was added using an acoustic liquid handler (Echo, Beckman Coulter) to wells containing 7.5 μL of 1-(6-((R)-3-(1-(5-chloro-1-((tetrahydro-2H-pyran-4-yl)methyl)-1H-indole-3-carbonyl)-4-(4-fluorophenyl)piperidine-4-carboxamido)pyrrolidin-1-yl)-6-oxohexyl)-3,3-dimethyl-5-sulfo-2-((1E,3E)-5-((E)-1,3,3-trimethyl-5-sulfoindolin-2-ylidene)penta-1,3-dien-1-yl)-3H-indol-1-ium (Example 15); 7.5 μL 400 pM SA-Tb (Cisbio, 610SATLB) and 400 pM ERK2[2-360(p-T185/p-Y187)]-Avi was added to the plate and incubated overnight at RT. HTRF signal was measured using a microplate reader (PheraStar, BMG Labtech) with excitation and emission wavelengths of […], respectively. The inhibitor dose-response curves were analyzed from the HTRF ratio signal using normalized IC50 regression curve fitting with control-based normalization.
Background: In TR-FRET formats the signal depends on donor and acceptor labels being close together.

Where two headings read alike, the source gives them in different places.

These results are taken from US20250092036A1, “COMPOUNDS AND COMPOSITIONS FOR MODULATING THE ACTIVITY OF ERK” (Novartis AG, priority 2023, published 2025).

T2 sequence (P28482 2-360 limits assumed): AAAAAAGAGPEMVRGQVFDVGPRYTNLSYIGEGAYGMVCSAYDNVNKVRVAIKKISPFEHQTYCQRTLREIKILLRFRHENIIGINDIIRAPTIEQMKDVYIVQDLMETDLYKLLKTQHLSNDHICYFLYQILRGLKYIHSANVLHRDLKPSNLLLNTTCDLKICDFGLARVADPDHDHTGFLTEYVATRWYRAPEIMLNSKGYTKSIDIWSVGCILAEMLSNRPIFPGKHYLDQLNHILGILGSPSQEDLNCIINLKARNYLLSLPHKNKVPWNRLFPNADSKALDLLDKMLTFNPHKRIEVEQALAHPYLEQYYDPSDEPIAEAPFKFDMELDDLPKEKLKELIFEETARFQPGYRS
T1 sequence (P28482 whole entry): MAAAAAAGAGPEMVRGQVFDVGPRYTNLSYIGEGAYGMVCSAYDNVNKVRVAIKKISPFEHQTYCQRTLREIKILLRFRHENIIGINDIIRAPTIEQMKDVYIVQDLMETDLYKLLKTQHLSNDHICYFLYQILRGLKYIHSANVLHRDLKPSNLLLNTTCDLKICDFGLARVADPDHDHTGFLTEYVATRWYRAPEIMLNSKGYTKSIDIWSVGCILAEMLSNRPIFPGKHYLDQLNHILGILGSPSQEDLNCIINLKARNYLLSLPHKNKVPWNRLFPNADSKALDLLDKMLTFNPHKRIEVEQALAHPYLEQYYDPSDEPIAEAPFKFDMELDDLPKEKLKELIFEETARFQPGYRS

Consider `CCO[C@H]1CC[C@H](Cc2c(C)n(C(=O)N3CC[C@@](C(=O)N[C@H]4CC[C@H](C(=O)O)C[C@@H]4C)(c4ccc(F)cc4)C[C@@H]3C)c3cc(F)ccc23)OC1` (mixture of isomers) [Example 8, (1S,3S,4S)-4-((2S,4S)-1-(3-((trans-5-ethoxytetrahydro-2H-pyran-2-yl)methyl)-6-fluoro-2-methyl-1H-indole-1-carbonyl)-4-(4-fluorophenyl)-2-methylpiperidine-4-carboxamido)-3-methylcyclohexane-1-carboxylic acid], for which the AC50 in assay [1] is 31 nM; in the assay on WM793 cells (Homo sapiens, WM793, 72 h), 15 nM; in assay [2], under 0.28 nM.
For `C[C@H]1C[C@@H](C(=O)O)CC[C@@H]1NC(=O)[C@@]1(c2ccc(F)cc2)CCN(C(=O)N2CC([C@H]3CC[C@H](OC4CCOCC4)CC3)c3ccc(F)cc32)[C@@H](C)C1` (single isomer, unassigned) [Example 4a], in that order: 24 nM, 4 nM and 0.87 nM.
Take `CC(C)O[C@H]1CC[C@H](C2CN(C(=O)N3CC[C@@](C(=O)N[C@H]4CC[C@H](C(=O)O)C[C@@H]4C)(c4ccc(F)cc4)C[C@@H]3C)c3cc(F)ccc32)CC1` (single isomer, unassigned) [Example 4c]: the AC50 in assay [1] is 1200 nM; with WM793 cells (Homo sapiens, WM793, 72 h), 410 nM; in assay [2], 3.9 nM.
Consider `CCOC1CCC(Cc2c(C)n(C(=O)N3CC[C@@](C(=O)N[C@H]4CC[C@H](C(=O)O)C[C@@H]4C)(c4ccc(F)cc4)C[C@@H]3C)c3cc(F)ccc23)OC1` (single isomer, unassigned) [Example 8a], for which the AC50 in assay [1] was 28 nM; in the assay with WM793 cells (Homo sapiens, WM793, 72 h), 13 nM; in assay [2] it was under 0.28 nM.
For `C[C@H]1C[C@@H](C(=O)O)CC[C@@H]1NC(=O)[C@@]1(c2ccc(F)cc2)CCN(C(=O)n2c3c(c4ccc(F)cc42)C(C2CCOCC2)OCC3)[C@@H](C)C1` (single isomer, unassigned) [Example 10], in that order: 280 nM, 40 nM and under 0.28 nM.
For `C[C@H]1C[C@@H](C(=O)O)CC[C@@H]1NC(=O)C1(c2ccc(F)cc2)CCN(C(=O)n2c3c(c4ccc(F)cc42)[C@H](c2ccccc2)OCC3)CC1` (single isomer, unassigned) [Example 10a], in that order: 88 nM, 77 nM and 0.35 nM.
For `C[C@H]1C[C@@H](C(=O)O)CC[C@@H]1NC(=O)C1(c2ccc(F)cc2)CCN(C(=O)n2c3c(c4ccc(F)cc42)[C@@H](c2ccccc2)OCC3)CC1` (single isomer, unassigned) [Example 10b], in that order: 12000 nM, 10000 nM and 37 nM.
For the compound `Cc1c(C[C@H]2CC[C@H](OC(C)C)CC2)c2ccc(F)cc2n1C(=O)N1CCC(C(=O)N[C@H]2CC[C@H](C(=O)O)C[C@@H]2C)(c2ccc(F)cc2)CC1` [Example 1, (1S,3S,4S)-4-(1-(6-fluoro-3-(((1r,4S)-4-isopropoxycyclohexyl)methyl)-2-methyl-1H-indole-1-carbonyl)-4-(4-fluorophenyl)piperidine-4-carboxamido)-3-methylcyclohexane-1-carboxylic acid], the AC50 in assay [1] was 100 nM; in the assay with WM793 cells it was 110 nM; in assay [2] it was 0.33 nM.
As to `CCc1c(C[C@H]2CC[C@H](OC3CCOCC3)CC2)c2ccc(F)cc2n1C(=O)N1CC[C@@](C(=O)N[C@H]2CC[C@H](C(=O)O)C[C@@H]2C)(c2ccc(F)c(F)c2)C[C@@H]1C` [Example 1a], the AC50 is 160 nM in assay [1]; 10 nM in the assay with WM793 cells (Homo sapiens, WM793, 72 h); under 0.28 nM in assay [2].
For `CN1CC[C@@H](NC(=O)C2(c3ccccc3)CCN(C(=O)c3c(C=O)n(CC4CCOCC4)c4ccc(Cl)cc34)CC2)C1` [Example 11a], the AC50 in the assay with WM793 cells (Homo sapiens, WM793, 72 h) worked out at 300 nM; in assay [2] it was 0.87 nM.
On to `C[C@H]1[C@@H](NC(=O)C2(c3ccc(F)cc3)CCN(C(=O)c3c(C=O)n(CC4CCOCC4)c4ccc(Cl)cc34)CC2)CN1C` [Example 11c], for which the AC50 in the assay on WM793 cells (Homo sapiens, WM793, 72 h) came to 17 nM.
`CN1CCC(NC(=O)C2(c3ccc(F)cc3)CCN(C(=O)c3c(C=O)n(CC4CCOCC4)c4ccc(Cl)cc34)CC2)CC1` [Example 11d]: the AC50 with WM793 cells (Homo sapiens, WM793, 72 h) stood at 430 nM.
The same measure, in the same setting: to `CN1CC(NC(=O)C2(c3ccc(F)cc3)CCN(C(=O)c3c(C=O)n(CC4CCOCC4)c4ccc(Cl)cc34)CC2)C1` [Example 11e] belongs 290 nM; to `CN1CC[C@@H](NC(=O)C2(c3ccc(F)cc3)CCN(C(=O)c3c(C=O)n(CC4CCOCC4)c4ccc(Cl)cc34)CC2)C1` [Example 11f], 140 nM.
With `CN1C[C@@H](F)[C@@H](NC(=O)C2(c3ccc(F)cc3)CCN(C(=O)c3c(C(F)F)n(CC4CCOCC4)c4ccc(Cl)cc34)CC2)C1` [Example 11i], the AC50 in the assay with WM793 cells (Homo sapiens, WM793, 72 h) is 54 nM; in assay [2], 0.72 nM.
For `CN1C[C@@H](F)[C@@H](NC(=O)C2(c3ccc(F)cc3)CCN(C(=O)c3c(C#N)n(CC4CCOCC4)c4ccc(Cl)cc34)CC2)C1` [Example 11j], the AC50 in the assay on WM793 cells (Homo sapiens, WM793, 72 h) turned out to be 730 nM; in assay [2], 0.97 nM.
For `O=Cc1c(C(=O)N2CCC(C(=O)N[C@H]3CNC[C@H]3F)(c3ccc(F)cc3)CC2)c2cc(Cl)ccc2n1CC1CCOCC1` [Example 14, 1-(5-chloro-2-formyl-1-((tetrahydro-2H-pyran-4-yl)methyl)-1H-indole-3-carbonyl)-4-(4-fluorophenyl)-N-((3S,4R)-4-fluoropyrrolidin-3-yl)piperidine-4-carboxamide], in that order: 120 nM and 0.48 nM.
